Experimental data reported in patent publication US20250353891A1 (MEDIMMUNE LIMITED, priority 2022, published 2025).
Like-named read-outs stand apart in the source and are kept apart here. Starred links: 1 amine or outer side, 2 acyl side, 3 side chain; linkers in the order of their positions; H or OH if unused. Non-standard residues stand in square brackets, D forms with d. Residues, ends and D or L forms follow the SMILES beside them. Groups on a side chain read outwards from the residue. *: point of attachment. C18 diacid = O=C(O)CCCCCCCCCCCCCCCCC(=O)*; γGlu = O=C(O)[C@H](CCC(=O)[*:2])N[*:1]; Stearoyl = CCCCCCCCCCCCCCCCCC(=O)*; Palmitoyl = CCCCCCCCCCCCCCCC(=O)*; αMeF = C[C@](N)(Cc1ccccc1)C(=O)O; PEG4 = NCCOCCOCCOCCOCCC(=O)O; PEG2 = NCCOCCOCCC(=O)O; AEEA = NCCOCCOCC(=O)O; Aib = CC(C)(N)C(=O)O

Columns and labels:
[1] = Mouse acute food intake study; assay type: in vivo; conditions: male C57Bl/6 mice, s.c., dose 10 nmol/kg, cumulative food intake at 24 hr vs vehicle
Description: Male C57Bl/6 mice obtained from Jackson Laboratories or Charles River at 8-9 weeks of age and were housed one per cage in BioDaq (Research Diets) cages. Mice were placed on Alpha Dri bedding, standard chow diet (Envigo, 2018) and given water pouches. Mice were allowed to acclimate for 1-2 weeks. Body weight was measured to ensure appropriate acclimation. After acclimation, mice were sham dosed a minimum of 2 times prior to initiation of food intake study. On study day, mice were placed in clean cage bottoms, weighed, and fasted for 6-8 hours. Mice were sorted into groups based on average 24-hour food intake data and body weight. 1-2 hours prior to lights out, mice were dosed subcutaneously with one vehicle or test peptide dissolved in an appropriate vehicle at 5 mL/kg. Mice were left undisturbed and allowed access to food and water for 48 hours. Automated food intake was monitored in the BioDaq system was monitored during this time. Discrete food intake data was exported into MS Excel from which cumulative food intake data was generated and analyzed.

[2] = biological target: human GLP-1 receptor (hGLP-1R) (Homo sapiens, UniProt P43220); assay: cAMP production (HTRF) in CHO cells expressing hGLP-1R; assay type: cell-based; parameters: expressed in transfected cells; conditions: for EC50: cAMP in CHO hGLP-1R cells, geometric mean, read-out: hGLP-1R EC50; for % Relative Potency Ratio: % GLP-1R activity relative to GLP-1 / % GlucR activity relative to glucagon
In short: (§1)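 Read-out: HTRF cAMP (anti-cAMP cryptate donor, cAMP-d2 acceptor in conjugate/lysis buffer), converted to % Delta F and fitted by 4-parameter logistic for EC50. Cell densities were 1×10^5 cells/mL (hGLP-1R) or 2×10^5 cells/mL (hGCGR). Stimulation lasted 30 min at room temperature.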

[3] = biological target: human glucagon receptor (hGCGR) (Homo sapiens, UniProt P47871); assay: cAMP production (HTRF) in CHO cells expressing hGCGR; assay type: cell-based; parameters: expressed in transfected cells; conditions: cAMP in CHO hGCGR cells, geometric mean, read-out: hGluc-R EC50
In short: as §1

[4] = Table 6, peptides modified at position 17
[5] = Table 7, peptides modified at position 20

human GLP-1 receptor (hGLP-1R), sequence (P43220 24-463): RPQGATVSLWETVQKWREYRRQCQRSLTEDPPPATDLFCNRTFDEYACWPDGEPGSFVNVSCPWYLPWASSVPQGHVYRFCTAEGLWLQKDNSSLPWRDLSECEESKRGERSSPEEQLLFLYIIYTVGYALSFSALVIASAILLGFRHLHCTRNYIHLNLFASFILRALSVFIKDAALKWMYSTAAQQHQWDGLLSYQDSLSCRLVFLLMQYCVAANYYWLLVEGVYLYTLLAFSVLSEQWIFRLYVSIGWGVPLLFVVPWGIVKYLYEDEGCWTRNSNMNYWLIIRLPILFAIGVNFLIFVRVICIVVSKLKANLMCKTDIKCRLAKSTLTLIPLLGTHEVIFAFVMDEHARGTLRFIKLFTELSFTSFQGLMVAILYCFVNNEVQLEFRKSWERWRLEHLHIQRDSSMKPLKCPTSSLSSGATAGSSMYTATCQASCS
human glucagon receptor (hGCGR), sequence (P47871 26-477): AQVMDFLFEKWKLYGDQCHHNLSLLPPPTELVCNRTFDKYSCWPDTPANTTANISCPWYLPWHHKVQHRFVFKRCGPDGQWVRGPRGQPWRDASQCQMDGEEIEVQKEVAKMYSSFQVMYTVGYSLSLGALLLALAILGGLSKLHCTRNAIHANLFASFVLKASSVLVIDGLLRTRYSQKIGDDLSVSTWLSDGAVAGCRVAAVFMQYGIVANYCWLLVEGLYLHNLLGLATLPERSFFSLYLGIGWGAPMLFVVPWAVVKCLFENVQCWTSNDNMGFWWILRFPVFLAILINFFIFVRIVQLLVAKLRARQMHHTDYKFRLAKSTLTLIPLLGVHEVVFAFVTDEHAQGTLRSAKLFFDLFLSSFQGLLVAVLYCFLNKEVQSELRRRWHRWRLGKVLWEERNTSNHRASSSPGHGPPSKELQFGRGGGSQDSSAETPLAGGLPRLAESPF

| SMILES | 24 hr % Vehicle Food Intake [1] | EC50 [2, 4] | % Relative Potency Ratio ([2]; Table 6) | EC50 [3, 4] | EC50 [2, 5] | % Relative Potency Ratio ([2]; Table 7) | EC50 [3, 5] |
| --- | --- | --- | --- | --- | --- | --- | --- |
| CCCCCCCCCCCCCCCCCC(=O)N[C@@H](CCC(=O)N[C@@H](CCC(=O)NCCOCCOCCOCCOCCC(=O)NCCCC[C@H](NC(=O)[C@H](CO)NC(=O)[C@H](CC(=O)O)NC(=O)[C@H](CC(C)C)NC(=O)[C@](C)(Cc1ccccc1)NC(=O)[C@H](CCCCN)NC(=O)[C@H](CO)NC(=O)[C@@H](NC(=O)[C@H](CC(=O)O)NC(=O)[C@H](CO)NC(=O)[C@@H](NC(=O)[C@](C)(Cc1ccccc1)NC(=O)[C@H](CO)NC(=O)CNC(=O)[C@H](CCC(N)=O)NC(=O)C(C)(C)NC(=O)[C@@H](N)Cc1c[nH]cn1)[C@@H](C)O)C(C)C)C(=O)N[C@@H](C)C(=O)N[C@@H](C)C(=O)N[C@@H](CCC(N)=O)C(=O)N[C@@H](CC(=O)O)C(=O)N[C@@](C)(Cc1ccccc1)C(=O)N[C@H](C(=O)N[C@@H](CCC(=O)O)C(=O)NC(C)(C)C(=O)N[C@@H](CC(C)C)C(=O)N[C@@H](CCC(=O)O)C(=O)N[C@@H](C)C(=O)NCC(=O)NCC(N)=O)C(C)C)C(=O)O)C(=O)O [Peptide 71] (H-H[Aib]QGS[αMeF]TSDVSK[αMeF]LDSK([PEG4-γGlu-γGlu-Stearoyl])AAQD[αMeF]VE[Aib]LEAGG-NH2) | 80.6% | 0.00217 nM | 48.9 | 0.0537 nM |  |  |  |
| CCCCCCCCCCCCCCCC(=O)N[C@@H](CCC(=O)N[C@@H](CCC(=O)NCCOCCOCCC(=O)NCCOCCOCCC(=O)NCCCC[C@H](NC(=O)[C@H](CO)NC(=O)[C@H](CC(=O)O)NC(=O)[C@H](CC(C)C)NC(=O)[C@](C)(Cc1ccccc1)NC(=O)[C@H](CCCCN)NC(=O)[C@H](CO)NC(=O)[C@@H](NC(=O)[C@H](CC(=O)O)NC(=O)[C@H](CO)NC(=O)[C@@H](NC(=O)[C@](C)(Cc1ccccc1)NC(=O)[C@H](CO)NC(=O)CNC(=O)[C@H](CCC(N)=O)NC(=O)C(C)(C)NC(=O)[C@@H](N)Cc1c[nH]cn1)[C@@H](C)O)C(C)C)C(=O)N[C@@H](C)C(=O)N[C@@H](C)C(=O)N[C@@H](CCC(N)=O)C(=O)N[C@@H](CC(=O)O)C(=O)N[C@@](C)(Cc1ccccc1)C(=O)N[C@H](C(=O)N[C@@H](CCC(N)=O)C(=O)NC(C)(C)C(=O)N[C@H](C(=O)N[C@@H](C)C(=O)N[C@@H](CC(N)=O)C(N)=O)[C@@H](C)CC)C(C)C)C(=O)O)C(=O)O [Peptide 73] (H-H[Aib]QGS[αMeF]TSDVSK[αMeF]LDSK([PEG2-PEG2-γGlu-γGlu-Palmitoyl])AAQD[αMeF]VQ[Aib]IAN-NH2; N-terminus assumed) | 63.4% |  | 157.9 | 0.022 nM |  |  |  |
| CCCCCCCCCCCCCCCCCC(=O)N[C@@H](CCC(=O)N[C@@H](CCC(=O)NCCOCCOCCC(=O)NCCOCCOCCC(=O)NCCCC[C@H](NC(=O)[C@H](CO)NC(=O)[C@H](CC(=O)O)NC(=O)[C@H](CC(C)C)NC(=O)C(C)(C)NC(=O)[C@H](CCCCN)NC(=O)[C@H](CO)NC(=O)[C@@H](NC(=O)[C@H](CC(=O)O)NC(=O)[C@H](CO)NC(=O)[C@@H](NC(=O)[C@](C)(Cc1ccccc1)NC(=O)[C@H](CO)NC(=O)CNC(=O)[C@H](CCC(N)=O)NC(=O)[C@H](CO)NC(=O)[C@@H](N)Cc1c[nH]cn1)[C@@H](C)O)C(C)C)C(=O)N[C@@H](C)C(=O)N[C@@H](C)C(=O)N[C@@H](CCC(N)=O)C(=O)N[C@@H](CC(=O)O)C(=O)N[C@@](C)(Cc1ccccc1)C(=O)N[C@H](C(=O)N[C@@H](CCC(N)=O)C(=O)NC(C)(C)C(=O)N[C@@H](CC(C)C)C(=O)N[C@@H](CCC(=O)O)C(=O)N[C@@H](C)C(=O)NCC(=O)NCC(N)=O)C(C)C)C(=O)O)C(=O)O [Peptide 96] (H-HSQGS[αMeF]TSDVSK[Aib]LDSK([PEG2-PEG2-γGlu-γGlu-Stearoyl])AAQD[αMeF]VQ[Aib]LEAGG-NH2; N-terminus assumed) | 51.9% |  | 69.9 | 0.0301 nM |  |  |  |
| CCCCCCCCCCCCCCCCCC(=O)N[C@@H](CCC(=O)N[C@@H](CCC(=O)NCCOCCOCCC(=O)NCCOCCOCCC(=O)NCCCC[C@H](NC(=O)[C@H](CO)NC(=O)[C@H](CC(=O)O)NC(=O)[C@H](CC(C)C)NC(=O)C(C)(C)NC(=O)[C@H](CCCCN)NC(=O)[C@H](CO)NC(=O)[C@@H](NC(=O)[C@H](CC(=O)O)NC(=O)[C@H](CO)NC(=O)[C@@H](NC(=O)[C@](C)(Cc1ccccc1)NC(=O)[C@H](CO)NC(=O)CNC(=O)[C@H](CCC(N)=O)NC(=O)C(C)(C)NC(=O)[C@@H](N)Cc1c[nH]cn1)[C@@H](C)O)C(C)C)C(=O)N[C@@H](CCCNC(=N)N)C(=O)N[C@@H](C)C(=O)N[C@@H](CCC(N)=O)C(=O)N[C@@H](CC(=O)O)C(=O)N[C@@](C)(Cc1ccccc1)C(=O)N[C@H](C(=O)N[C@@H](CCC(N)=O)C(=O)NC(C)(C)C(=O)N[C@H](C(=O)N[C@@H](C)C(=O)N[C@@H](CC(N)=O)C(N)=O)[C@@H](C)CC)C(C)C)C(=O)O)C(=O)O [Peptide 102] (H-H[Aib]QGS[αMeF]TSDVSK[Aib]LDSK([PEG2-PEG2-γGlu-γGlu-Stearoyl])RAQD[αMeF]VQ[Aib]IAN-NH2; N-terminus assumed) | 81.9% |  | 227.0 | 0.0265 nM |  |  |  |
| CC[C@H](C)[C@H](NC(=O)[C@H](CO)NC(=O)[C@H](CCC(N)=O)NC(=O)[C@@H](NC(=O)[C@H](Cc1ccccc1)NC(=O)[C@H](CC(=O)O)NC(=O)[C@H](CCCCNC(=O)COCCOCCNC(=O)COCCOCCNC(=O)CC[C@H](NC(=O)CCCCCCCCCCCCCCCCC(=O)O)C(=O)O)NC(=O)[C@H](C)NC(=O)C(C)(C)NC(=O)[C@H](CCCNC(=N)N)NC(=O)[C@H](CO)NC(=O)[C@H](CC(=O)O)NC(=O)[C@H](CC(C)C)NC(=O)[C@](C)(Cc1ccccc1)NC(=O)[C@H](CCCCN)NC(=O)[C@H](CO)NC(=O)[C@@H](NC(=O)[C@H](CC(=O)O)NC(=O)[C@H](CO)NC(=O)[C@@H](NC(=O)[C@](C)(Cc1ccccc1)NC(=O)[C@H](CO)NC(=O)CNC(=O)[C@H](Cc1c[nH]cn1)NC(=O)C(C)(C)NC(=O)[C@@H](N)Cc1c[nH]cn1)[C@@H](C)O)C(C)C)C(C)C)C(=O)N[C@@H](C)C(=O)N[C@@H](CC(N)=O)C(=O)N[C@H](C(N)=O)[C@@H](C)O [Peptide 223] (H-H[Aib]HGS[αMeF]TSDVSK[αMeF]LDSR[Aib]AK([AEEA-AEEA-γGlu-C18 diacid])DFVQSIANT-NH2) | 63.6% |  |  |  | 0.0488 nM | 4.2 | 0.104 nM |
| CC[C@H](C)[C@H](NC(=O)[C@H](Cc1c[nH]c2ccccc12)NC(=O)[C@H](CCC(N)=O)NC(=O)[C@@H](NC(=O)[C@](C)(Cc1ccccc1)NC(=O)[C@H](CC(=O)O)NC(=O)[C@H](CCCCNC(=O)COCCOCCNC(=O)COCCOCCNC(=O)CC[C@H](NC(=O)CC[C@H](NC(=O)CCCCCCCCCCCCCCCCC(=O)O)C(=O)O)C(=O)O)NC(=O)[C@H](C)NC(=O)[C@H](C)NC(=O)[C@H](CCCNC(=N)N)NC(=O)[C@H](CO)NC(=O)[C@H](CC(=O)O)NC(=O)[C@H](CC(C)C)NC(=O)[C@](C)(Cc1ccccc1)NC(=O)[C@H](CCCCN)NC(=O)[C@H](CO)NC(=O)[C@@H](NC(=O)[C@H](CC(=O)O)NC(=O)[C@H](CO)NC(=O)[C@@H](NC(=O)[C@](C)(Cc1ccccc1)NC(=O)[C@H](CO)NC(=O)CNC(=O)[C@H](Cc1c[nH]cn1)NC(=O)C(C)(C)NC(=O)[C@@H](N)Cc1c[nH]cn1)[C@@H](C)O)C(C)C)C(C)C)C(=O)N[C@@H](C)C(=O)N[C@@H](CC(N)=O)C(=O)N[C@H](C(N)=O)[C@@H](C)O [Peptide 247] (H-H[Aib]HGS[αMeF]TSDVSK[αMeF]LDSRAAK([AEEA-AEEA-γGlu-γGlu-C18 diacid])D[αMeF]VQWIANT-NH2; N-terminus assumed) | 66.9% |  |  |  | 0.0849 nM | 1.2 | 0.0511 nM |
